From patent publication US20200038514A1, “FOLATE CONJUGATE FOR USE IN TARGETING TUMOR ASSOCIATED MACROPHAGES” (ENDOCYTE, INC., priority 2016, published 2020)

Tests used:
[1] = system: ST070 ovarian PDX tumors; experiment: In vivo activity against ovarian tumors; set-up: species or system mice; conditions: Conjugate 5 0.5 μmol/kg SIW; EC1456 4.0 μmol/kg SIW; paclitaxel 15 mg/kg SIW; two weeks
Experimental: (§1) Mice were maintained and tumor volumes were measures according to Method 3.
(§2) Primary human Ovarian model ST070 fragments (2-4 mm in diameter) were inoculated subcutaneously at the right flank of each mouse. Mice were randomized into experimental groups of 7 mice each and test articles were injected through the lateral tail vein under sterile conditions in a volume of […] of phosphate-buffered saline (PBS).

[2] = system: TNBC PDX tumor; experiment: In vivo activity against triple negative breast tumors (FIG. 10); set-up: species or system mice; conditions: Conjugate 5 0.27 μmol/kg BIW two weeks; erubulin mesylate 1.0 μmol/kg SIW two weeks
Experimental: as §1
as §2, with “TNBC” for “Ovarian”, “ST502 (2-4 mm in diameter) or primary human TNBC model ST738” for “ST070 fragments”

| Compound | ovarian PDX tumor size compared to untreated control [1] | TNBC PDX tumor size compared to untreated control [2] |
| --- | --- | --- |
| CC(=O)O[C@H]1C(=O)[C@@]2(C)[C@H]([C@H](OC(=O)c3ccccc3)[C@]3(O)C[C@H](OC(=O)[C@H](O)[C@@H](NC(=O)c4ccccc4)c4ccccc4)C(C)=C1C3(C)C)[C@]1(OC(C)=O)CO[C@@H]1C[C@@H]2O [paclitaxel, reference compound] | did not decrease ovarian PDX tumor size | – |
| erubulin mesylate [reference compound] | – | did not decrease TNBC PDX tumor size |
